Measurements: US10793564B2, “Amino acid compounds and methods of use” (Pliant Therapeutics, Inc., priority 2018, dated 2020)

Molecular target: recombinant human integrin αVβ6 (Homo sapiens (Human), UniProt P06756+P18564)
Assay: Solid phase integrin αVβ6 binding assay
Conditions: inhibition of recombinant TGFβ1 LAP binding to coated integrin, IC50 presented in four ranges, read-out: αvβ6 Inhibition IC50 (nM) - range
Method in brief: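 Plates coated with recombinant human αVβ6 (2 μg/mL) and blocked; compounds competed with TGFβ1 LAP (0.67 μg/mL) in Mn2+ (0.5 mM)/BSA/sucrose TBS for 2 h at 25° C. Bound LAP detected by biotin anti-LAP and peroxidase-streptavidin; IC50 by four-parameter logistic fit.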

recombinant human integrin αVβ6, sequence (P06756 31-992): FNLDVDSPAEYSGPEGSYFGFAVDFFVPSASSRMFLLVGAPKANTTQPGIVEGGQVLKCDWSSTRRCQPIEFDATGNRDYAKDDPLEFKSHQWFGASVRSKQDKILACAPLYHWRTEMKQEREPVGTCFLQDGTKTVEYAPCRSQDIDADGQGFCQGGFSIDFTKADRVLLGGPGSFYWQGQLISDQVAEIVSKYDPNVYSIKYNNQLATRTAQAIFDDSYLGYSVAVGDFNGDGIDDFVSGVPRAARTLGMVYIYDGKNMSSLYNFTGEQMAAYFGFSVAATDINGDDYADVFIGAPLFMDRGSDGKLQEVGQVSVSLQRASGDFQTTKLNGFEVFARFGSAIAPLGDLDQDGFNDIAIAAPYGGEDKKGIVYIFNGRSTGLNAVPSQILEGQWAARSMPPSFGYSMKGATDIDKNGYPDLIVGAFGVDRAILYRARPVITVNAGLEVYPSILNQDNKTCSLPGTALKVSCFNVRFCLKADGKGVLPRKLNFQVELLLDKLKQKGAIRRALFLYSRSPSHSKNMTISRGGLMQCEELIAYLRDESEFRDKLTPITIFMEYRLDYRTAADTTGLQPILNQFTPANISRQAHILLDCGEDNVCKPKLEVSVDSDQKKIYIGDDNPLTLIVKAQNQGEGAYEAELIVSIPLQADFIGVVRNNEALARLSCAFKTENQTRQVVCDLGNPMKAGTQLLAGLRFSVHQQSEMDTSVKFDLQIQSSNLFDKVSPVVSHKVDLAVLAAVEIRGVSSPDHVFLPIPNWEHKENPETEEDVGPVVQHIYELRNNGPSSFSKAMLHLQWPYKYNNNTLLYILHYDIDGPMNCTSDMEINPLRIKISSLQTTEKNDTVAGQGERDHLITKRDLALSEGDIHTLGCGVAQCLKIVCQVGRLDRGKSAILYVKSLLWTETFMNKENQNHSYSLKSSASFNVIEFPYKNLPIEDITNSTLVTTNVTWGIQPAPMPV
recombinant human integrin αVβ6, sequence (P18564 22-707): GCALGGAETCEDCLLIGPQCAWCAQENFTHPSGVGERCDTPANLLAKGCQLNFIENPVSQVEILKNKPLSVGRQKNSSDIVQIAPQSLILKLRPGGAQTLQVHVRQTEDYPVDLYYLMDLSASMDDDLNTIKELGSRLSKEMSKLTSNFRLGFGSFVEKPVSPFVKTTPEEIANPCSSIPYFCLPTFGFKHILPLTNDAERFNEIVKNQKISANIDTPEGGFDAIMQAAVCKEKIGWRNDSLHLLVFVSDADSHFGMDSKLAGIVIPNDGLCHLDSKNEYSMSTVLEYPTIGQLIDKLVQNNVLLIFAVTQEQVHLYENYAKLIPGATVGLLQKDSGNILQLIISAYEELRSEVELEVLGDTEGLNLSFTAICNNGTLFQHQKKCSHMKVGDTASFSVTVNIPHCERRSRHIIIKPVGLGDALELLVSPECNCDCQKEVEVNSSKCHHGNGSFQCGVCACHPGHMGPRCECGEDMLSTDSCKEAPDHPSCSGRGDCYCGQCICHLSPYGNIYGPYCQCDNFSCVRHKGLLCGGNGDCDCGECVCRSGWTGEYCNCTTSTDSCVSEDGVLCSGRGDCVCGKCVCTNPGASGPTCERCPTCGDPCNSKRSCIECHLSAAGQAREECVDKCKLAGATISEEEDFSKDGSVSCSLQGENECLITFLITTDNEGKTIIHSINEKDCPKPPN

SMILES	IC50
CS(=O)(=O)CCN(CCCCc1ccc2c(n1)NCCC2)CC[C@H](Nc1ncc(Br)cn1)C(=O)O [Compound 103, (S)-2-((5-bromopyrimidin-2-yl)amino)-4-((2-(methylsulfonyl)ethyl) (4-(5,6,7,8-tetrahydro-1,8-naphthyridin-2-yl)butyl)amino) butanoic Acid]	> 1000 nM
CS(=O)(=O)CCN(CCCCc1ccc2c(n1)NCCC2)CC[C@H](Nc1ccnc(C(F)(F)F)n1)C(=O)O [Compound 104, (S)-4-((2-(methylsulfonyl)ethyl) (4-(5,6,7,8-tetrahydro-1,8-naphthyridin-2-yl)butyl)amino)-2-((2-(trifluoromethyl)pyrimidin-4-yl)amino) butanoic Acid]	> 1000 nM
COC[C@@H](F)CN(CCCCc1ccc2c(n1)NCCC2)CC[C@H](Nc1ncnc2c1cnn2C)C(=O)O [Compound 105, (S)-4-(((S)-2-fluoro-3-methoxypropyl) (4-(5,6,7,8-tetrahydro-1,8-naphthyridin-2-yl)butyl)amino)-2-((1-methyl-1H-pyrazolo[3,4-d]pyrimidin-4-yl)amino) butanoic Acid]	< 50 nM
CO[C@H](C)CN(CCCCc1ccc2c(n1)NCCC2)CC[C@H](Nc1ccncn1)C(=O)O [Compound 106, (S)-4-(((R)-2-methoxypropyl) (4-(5,6,7,8-tetrahydro-1,8-naphthyridin-2-yl)butyl)amino)-2-(pyrimidin-4-ylamino) butanoic Acid]	< 50 nM
CS(=O)(=O)CCN(CCCCc1ccc2c(n1)NCCC2)CC[C@H](Nc1nc(-c2cccnc2)nc2ccccc12)C(=O)O [Compound 107, (S)-4-((2-(methylsulfonyl)ethyl) (4-(5,6,7,8-tetrahydro-1,8-naphthyridin-2-yl)butyl)amino)-2-((2-(pyridin-3-yl)quinazolin-4-yl)amino) butanoic Acid]	250 to 1000 nM
COC[C@@H](F)CN(CCCCc1ccc2c(n1)NCCC2)CC[C@H](Nc1cc(-n2cccn2)ncn1)C(=O)O [Compound 108, (S)-2-((6-(1H-pyrazol-1-yl)pyrimidin-4-yl)amino)-4-(((S)-2-fluoro-3-methoxypropyl) (4-(5,6,7,8-tetrahydro-1,8-naphthyridin-2-yl)butyl)amino) butanoic Acid]	> 1000 nM
COC[C@@H](F)CN(CCCCc1ccc2c(n1)NCCC2)CC[C@H](Nc1nc(-c2cccnc2)nc2ccccc12)C(=O)O [Compound 109, (S)-4-(((S)-2-fluoro-3-methoxypropyl) (4-(5,6,7,8-tetrahydro-1,8-naphthyridin-2-yl)butyl)amino)-2-((2-(pyridin-3-yl)quinazolin-4-yl)amino) butanoic Acid]	< 50 nM
COC[C@@H](F)CN(CCCCc1ccc2c(n1)NCCC2)CC[C@H](Nc1ncncc1-c1ccccc1)C(=O)O [Compound 110, (S)-4-(((S)-2-fluoro-3-methoxypropyl) (4-(5,6,7,8-tetrahydro-1,8-naphthyridin-2-yl)butyl)amino)-2-((5-phenylpyrimidin-4-yl)amino) butanoic Acid]	< 50 nM
N#Cc1cnc(N[C@@H](CCN(CCCCc2ccc3c(n2)NCCC3)CCOc2ccccc2)C(=O)O)nc1 [Compound 111, (S)-2-((5-cyanopyrimidin-2-yl)amino)-4-((2-phenoxyethyl) (4-(5,6,7,8-tetrahydro-1,8-naphthyridin-2-yl)butyl)amino) butanoic Acid]	< 50 nM
O=C(O)[C@H](CCN(CCCCc1ccc2c(n1)NCCC2)CC(F)F)Nc1ncnc2[nH]ncc12 [Compound 112, (S)-2-((1H-pyrazolo[3,4-d]pyrimidin-4-yl)amino)-4-((2,2-difluoroethyl) (4-(5,6,7,8-tetrahydro-1,8-naphthyridin-2-yl)butyl)amino) butanoic Acid]	250 to 1000 nM
O=C(O)[C@H](CCN(CCCCc1ccc2c(n1)NCCC2)C1CC1)Nc1ncc(C(F)(F)F)cn1 [Compound 114, (S)-4-(cyclopropyl(4-(5,6,7,8-tetrahydro-1,8-naphthyridin-2-yl)butyl)amino)-2-((5-(trifluoromethyl)pyrimidin-2-yl)amino) butanoic Acid]	< 50 nM
O=C(O)[C@H](CCN(CCCCc1ccc2c(n1)NCCC2)C1CC1)Nc1ccnc(C(F)(F)F)n1 [Compound 115, (S)-4-(cyclopropyl(4-(5,6,7,8-tetrahydro-1,8-naphthyridin-2-yl)butyl)amino)-2-((2-(trifluoromethyl)pyrimidin-4-yl)amino) butanoic Acid]	50 to 250 nM
O=C(O)[C@H](CCN(CCCCc1ccc2c(n1)NCCC2)C1CC1)Nc1ncnc2[nH]ncc12 [Compound 116, (S)-2-((1H-pyrazolo[3,4-d]pyrimidin-4-yl)amino)-4-(cyclopropyl(4-(5,6,7,8-tetrahydro-1,8-naphthyridin-2-yl)butyl)amino) butanoic Acid]	50 to 250 nM
O=C(O)[C@H](CCN(CCCCc1ccc2c(n1)NCCC2)CCOc1ccccc1)Nc1ncc(C2CC2)cn1 [Compound 117, (S)-2-((5-cyclopropylpyrimidin-2-yl)amino)-4-((2-phenoxyethyl) (4-(5,6,7,8-tetrahydro-1,8-naphthyridin-2-yl)butyl)amino) butanoic Acid]	< 50 nM
N#Cc1cnc(N[C@@H](CCN(CCCCc2ccc3c(n2)NCCC3)CC(F)F)C(=O)O)nc1 [Compound 118, (S)-2-((5-cyanopyrimidin-2-yl)amino)-4-((2,2-difluoroethyl) (4-(5,6,7,8-tetrahydro-1,8-naphthyridin-2-yl)butyl)amino) butanoic Acid]	> 1000 nM
O=C(O)[C@H](CCN(CCCCc1ccc2c(n1)NCCC2)CC(F)F)Nc1ncncc1-c1ccccc1 [Compound 119, (S)-4-((2,2-difluoroethyl) (4-(5,6,7,8-tetrahydro-1,8-naphthyridin-2-yl)butyl)amino)-2-((5-phenylpyrimidin-4-yl)amino) butanoic Acid]	> 1000 nM
O=C(O)[C@H](CCN(CCCCc1ccc2c(n1)NCCC2)CC(F)F)Nc1ccncn1 [Compound 120, (S)-4-((2,2-difluoroethyl) (4-(5,6,7,8-tetrahydro-1,8-naphthyridin-2-yl)butyl)amino)-2-(pyrimidin-4-ylamino) butanoic Acid]	> 1000 nM
O=C(O)[C@H](CCN(CCCCc1ccc2c(n1)NCCC2)CC(F)F)Nc1ncc(F)cn1 [Compound 121, (S)-4-((2,2-difluoroethyl) (4-(5,6,7,8-tetrahydro-1,8-naphthyridin-2-yl)butyl)amino)-2-((5-fluoropyrimidin-2-yl)amino) butanoic Acid]	> 1000 nM
Cc1cc(N[C@@H](CCN(CCCCc2ccc3c(n2)NCCC3)CC(F)F)C(=O)O)nc(-c2ccncc2)n1 [Compound 122, (S)-4-((2,2-difluoroethyl) (4-(5,6,7,8-tetrahydro-1,8-naphthyridin-2-yl)butyl)amino)-2-((6-methyl-2-(pyridin-4-yl)pyrimidin-4-yl)amino) butanoic Acid]	250 to 1000 nM
Cn1ncc2c(N[C@@H](CCN(CCCCc3ccc4c(n3)NCCC4)CCOc3ccc(F)cc3)C(=O)O)ncnc21 [Compound 123, (S)-4-((2-(4-fluorophenoxy)ethyl) (4-(5,6,7,8-tetrahydro-1,8-naphthyridin-2-yl)butyl)amino)-2-((1-methyl-1H-pyrazolo[3,4-d]pyrimidin-4-yl)amino) butanoic Acid]	< 50 nM
CO[C@H](C)CN(CCCCc1ccc2c(n1)NCCC2)CC[C@H](Nc1ncc(C2CC2)cn1)C(=O)O [Compound 124, (S)-2-((5-cyclopropylpyrimidin-2-yl)amino)-4-(((R)-2-methoxypropyl) (4-(5,6,7,8-tetrahydro-1,8-naphthyridin-2-yl)butyl)amino) butanoic Acid]	< 50 nM
CS(=O)(=O)CCN(CCCCc1ccc2c(n1)NCCC2)CC[C@H](Nc1ncnc2[nH]ncc12)C(=O)O [Compound 125, (S)-2-((1H-pyrazolo[3,4-d]pyrimidin-4-yl)amino)-4-((2-(methylsulfonyl)ethyl) (4-(5,6,7,8-tetrahydro-1,8-naphthyridin-2-yl)butyl)amino) butanoic Acid]	50 to 250 nM
CS(=O)(=O)CCN(CCCCc1ccc2c(n1)NCCC2)CC[C@H](Nc1cc(-n2cccn2)ncn1)C(=O)O [Compound 126, (S)-2-((6-(1H-pyrazol-1-yl)pyrimidin-4-yl)amino)-4-((2-(methylsulfonyl)ethyl) (4-(5,6,7,8-tetrahydro-1,8-naphthyridin-2-yl)butyl)amino) butanoic Acid]	> 1000 nM
COC[C@@H](F)CN(CCCCc1ccc2c(n1)NCCC2)CC[C@H](Nc1cc(-c2ccccc2)ncn1)C(=O)O [Compound 128, (S)-4-(((S)-2-fluoro-3-methoxypropyl) (4-(5,6,7,8-tetrahydro-1,8-naphthyridin-2-yl)butyl)amino)-2-((6-phenylpyrimidin-4-yl)amino) butanoic Acid]	> 1000 nM
O=C(O)[C@H](CCN(CCCCc1ccc2c(n1)NCCC2)CC1CCO1)Nc1ncnc2ccccc12 (stereo partly drawn) [Compound 129, (2S)-4-((oxetan-2-ylmethyl) (4-(5,6,7,8-tetrahydro-1,8-naphthyridin-2-yl)butyl)amino)-2-(quinazolin-4-ylamino) butanoic Acid]	< 50 nM
O=C(O)[C@H](CCN(CCCCc1ccc2c(n1)NCCC2)CC(CO)CO)Nc1ncnc2ccccc12 [Compound 130, (S)-4-((3-hydroxy-2-(hydroxymethyl)propyl) (4-(5,6,7,8-tetrahydro-1,8-naphthyridin-2-yl)butyl)amino)-2-(quinazolin-4-ylamino) butanoic Acid]	< 50 nM
O=C(O)[C@H](CCN(CCCCc1ccc2c(n1)NCCC2)CCC(F)F)Nc1ncc(C(F)(F)F)cn1 [Compound 132, (S)-4-((3,3-difluoropropyl) (4-(5,6,7,8-tetrahydro-1,8-naphthyridin-2-yl)butyl)amino)-2-((5-(trifluoromethyl)pyrimidin-2-yl)amino) butanoic Acid]	50 to 250 nM
